Measured values taken from article PMC8286840, “Identifying SARS-CoV-2 antiviral compounds by screening for small molecule inhibitors of Nsp3 papain-like protease” (Biochemical Journal, 2021).
Structures can show the parent of a compound that is named as a salt. Where two headings read alike, the source gives them in different places.

Legend:
[1] = target: T1, SARS-CoV-2 PLpro (nsp3 1564–1878) (Severe acute respiratory syndrome coronavirus 2, UniProt P0DTD1); assay: biochemical; parameters: FRET-quenched peptide (Pro3) cleavage by PLpro, 10 min pre-incubation, slope over 20 min, normalised to no-compound control; details: low concentration screen, read-out: % of control remaining
[2] = target: T1, SARS-CoV-2 PLpro (nsp3 1564–1878); assay: biochemical; parameters: FRET-quenched peptide (Pro3) cleavage by PLpro, 10 min pre-incubation, slope over 20 min, normalised to no-compound control; details: high concentration screen, read-out: % of control remaining

## O=C(O)/C=C/C(=O)O [Fumaric acid]
[1]; Well no.=6539
  remaining activity at 1.25 µM: 101%
[2]; Well no.=6539
  remaining activity at 3.75 µM: 82.4%

## CCCC[C@@H](C)[C@@H](OC(=O)C[C@@H](CC(=O)O)C(=O)O)[C@H](C[C@@H](C)CCCCCC[C@@H](O)C[C@H](O)[C@H](C)N)OC(=O)C[C@@H](CC(=O)O)C(=O)O [Fumonisin B2]
[1]; Well no.=3285
  remaining activity at 1.25 µM: 95.4%
[2]; Well no.=3285
  remaining activity at 3.75 µM: 95.7%

## Cc1nc2c([nH]1)c(=O)n(C)c(=O)n2Cc1ccco1 [Furafylline]
[1]; Well no.=665
  remaining activity at 1.25 µM: 95.4%
[1]; Well no.=1544
  remaining activity at 1.25 µM: 97.6%
[2]; Well no.=665
  remaining activity at 3.75 µM: 92.2%
[2]; Well no.=1544
  remaining activity at 3.75 µM: 100%

## O=C(O)c1cc2cc(Cc3cccnc3)ccc2o1 [Furegrelate sodium]
[1]; Well no.=563
  remaining activity at 1.25 µM: 97.2%
[2]; Well no.=563
  remaining activity at 3.75 µM: 97.3%

## NS(=O)(=O)c1cc(C(=O)O)c(NCc2ccco2)cc1Cl [Furosemide]
[1]; Well no.=659
  remaining activity at 1.25 µM: 92.2%
[1]; Well no.=2166
  remaining activity at 1.25 µM: 101%
[1]; Well no.=7462
  remaining activity at 1.25 µM: 102%
[2]; Well no.=659
  remaining activity at 3.75 µM: 94.4%
[2]; Well no.=2166
  remaining activity at 3.75 µM: 99.5%
[2]; Well no.=7462
  remaining activity at 3.75 µM: 102%

## CCCCc1ccc(C(=O)O)nc1 [Fusaric acid]
[1]; Well no.=613
  remaining activity at 1.25 µM: 98.5%
[2]; Well no.=613
  remaining activity at 3.75 µM: 99.1%

## CC(=O)O[C@H]1C[C@@]2(C)[C@@H](C[C@@H](O)[C@H]3[C@@]4(C)CC[C@@H](O)[C@@H](C)[C@@H]4CC[C@@]32C)/C1=C(\CCC=C(C)C)C(=O)O [Fusidic acid sodium]
[1]; Well no.=657
  remaining activity at 1.25 µM: 104%
[2]; Well no.=657
  remaining activity at 3.75 µM: 101%

## c1cc(-c2sc(-c3ccncc3)c(-c3ccncc3)c2-c2ccncc2)ccn1 [GANT58]
[1]; Well no.=5874
  remaining activity at 1.25 µM: 94.6%
[2]; Well no.=5874
  remaining activity at 3.75 µM: 86.5%

## Fc1ccc(C(OCCN2CCN(CCCc3ccccc3)CC2)c2ccc(F)cc2)cc1 [GBR-12909 dihydrochloride]
[1]; Well no.=590
  remaining activity at 1.25 µM: 98.5%
[2]; Well no.=590
  remaining activity at 3.75 µM: 98.5%

## c1ccc(CCCN2CCN(CCOC(c3ccccc3)c3ccccc3)CC2)cc1 [GBR-12935 dihydrochloride]
[1]; Well no.=765
  remaining activity at 1.25 µM: 91%
[2]; Well no.=765
  remaining activity at 3.75 µM: 87.4%

## CC(C)NC[C@@H](C(=O)N1CCN(c2ncnc3c2[C@H](C)C[C@H]3O)CC1)c1ccc(Cl)cc1 [GDC-0068]
[1]; Well no.=5131
  remaining activity at 1.25 µM: 104%
[2]; Well no.=5131
  remaining activity at 3.75 µM: 106%

## CN[C@@H](C)C(=O)N[C@H](C(=O)N1CCC[C@H]1C(=O)Nc1snnc1-c1ccccc1)C1CCCCC1 [GDC-0152]
[1]; Well no.=6692
  remaining activity at 1.25 µM: 103%
[2]; Well no.=6692
  remaining activity at 3.75 µM: 95.6%

## CCNC(=O)Nc1ccc(-c2nc3c(c(N4CCOC[C@@H]4C)n2)CCN(C2COC2)C3)cc1 [GDC-0349]
[1]; Well no.=5220
  remaining activity at 1.25 µM: 97.8%
[2]; Well no.=5220
  remaining activity at 3.75 µM: 95.1%

## OCCn1cc(-c2ccc3c(c2)CC/C3=N\O)c(-c2ccncc2)n1 [GDC-0879]
[1]; Well no.=5043
  remaining activity at 1.25 µM: 104%
[2]; Well no.=5043
  remaining activity at 3.75 µM: 104%

## CS(=O)(=O)N1CCN(Cc2cc3nc(-c4cccc5[nH]ncc45)nc(N4CCOCC4)c3s2)CC1 [GDC-0941]
[1]; Well no.=2801
  remaining activity at 1.25 µM: 103%
[2]; Well no.=2801
  remaining activity at 3.75 µM: 101%

## Cc1cccc(NC(=O)Nc2ccc(-c3csc4ncnc(N)c34)cc2)c1 [GDP366]
[1]; Well no.=6976
  remaining activity at 1.25 µM: 101%
[2]; Well no.=6976
  remaining activity at 3.75 µM: 99.1%

## Cc1cc(Cc2cc(C)cc(C(C)(C)C)c2O)c(O)c(C(C)(C)C)c1 [GERI-BP002-A]
[1]; Well no.=3701
  remaining activity at 1.25 µM: 97.3%
[2]; Well no.=3701
  remaining activity at 3.75 µM: 101%

## Cc1cc(Cc2cc(C)cc(C(C)(C)C)c2O)c(O)c(C(C)(C)C)c1 [GERI-BP002A]
[1]; Well no.=3907
  remaining activity at 1.25 µM: 104%
[2]; Well no.=3907
  remaining activity at 3.75 µM: 97.7%

## CN(C)CCCn1cc(C2=C(c3c[nH]c4ccccc34)C(=O)NC2=O)c2ccccc21 [GF 109203X - 2-[1-(3-Dimethylaminopropyl)indol-3-yl]-3-(indol-3-yl) maleimide]
[1]; Well no.=2340
  remaining activity at 1.25 µM: 103%
[2]; Well no.=2340
  remaining activity at 3.75 µM: 106%

## COC(=O)[C@H](CC(C)C)NC(=O)c1ccc(NC[C@@H](N)CS)cc1-c1cccc2ccccc12 [GGTI298 Trifluoroacetate]
[1]; Well no.=8456
  remaining activity at 1.25 µM: 97.5%
[2]; Well no.=8456
  remaining activity at 3.75 µM: 86.9%

## COC(=O)[C@H](CC(C)C)NC(=O)c1ccc(NC[C@@H](N)CS)cc1-c1cccc2ccccc12 [GGTI298]
[1]; Well no.=8076
  remaining activity at 1.25 µM: 106%
[2]; Well no.=8076
  remaining activity at 3.75 µM: 101%

## CN(C)c1cccc(-c2c3c(=O)n(-c4ccccc4Cl)[nH]c3cc(=O)n2C)c1 [GKT137831]
[1]; Well no.=9078
  remaining activity at 1.25 µM: 96.8%
[2]; Well no.=9078
  remaining activity at 3.75 µM: 89.9%

## N#CN=C(NCCCCCCOc1ccc(Cl)cc1)Nc1ccncc1 [GMX1778 (CHS828)]
[1]; Well no.=8486
  remaining activity at 1.25 µM: 93.1%
[2]; Well no.=8486
  remaining activity at 3.75 µM: 95.9%

## O=C(NCCO)c1cccc(-c2cc(Nc3ccc(OC(F)(F)F)cc3)ncn2)c1 [GNF-5]
[1]; Well no.=5861
  remaining activity at 1.25 µM: 105%
[2]; Well no.=5861
  remaining activity at 3.75 µM: 98.1%

## O=C1c2cc([N+](=O)[O-])ccc2-n2c1nc1ccccc1c2=O [GNF-PF-3777]
[1]; Well no.=8414
  remaining activity at 1.25 µM: 88.1%
[1]; Well no.=8695
  remaining activity at 1.25 µM: 103%
[2]; Well no.=8414
  remaining activity at 3.75 µM: 78.5%
[2]; Well no.=8695
  remaining activity at 3.75 µM: 99%

## O=C(O)CC1CCC2(CC1)CCN(c1cc(OC(F)(F)F)ccc1Cl)CC2 [GPR120-IN-1]
[1]; Well no.=8485
  remaining activity at 1.25 µM: 104%
[2]; Well no.=8485
  remaining activity at 3.75 µM: 96.8%

## OC[C@H]1O[C@@H](n2cnc3c(N[C@H]4CCC[C@@H]4O)ncnc32)[C@H](O)[C@@H]1O [GR79236]
[1]; Well no.=7817
  remaining activity at 1.25 µM: 105%
[1]; Well no.=7852
  remaining activity at 1.25 µM: 94.1%
[1]; Well no.=8455
  remaining activity at 1.25 µM: 108%
[2]; Well no.=7817
  remaining activity at 3.75 µM: 105%
[2]; Well no.=7852
  remaining activity at 3.75 µM: 93.8%
[2]; Well no.=8455
  remaining activity at 3.75 µM: 110%

## COC(=O)N1CCN(C(=O)Cc2ccc(Cl)c(Cl)c2)C(CN2CCCC2)C1 (centres unmarked) [GR-89696 fumarate]
[1]; Well no.=462
  remaining activity at 1.25 µM: 101%
[2]; Well no.=462
  remaining activity at 3.75 µM: 99.8%

## CC(C)(C)[C@H]1CC[C@H](N(Cc2ccc(C(=O)NCCC(=O)O)cc2)C(=O)Nc2ccc(OC(F)(F)F)cc2)CC1 [GRA Ex-25]
[1]; Well no.=6180
  remaining activity at 1.25 µM: 103%
[2]; Well no.=6180
  remaining activity at 3.75 µM: 106%

## NCC(=O)N[C@@H](CCCN=C(N)N)C(=O)NCC(=O)N[C@@H](CC(=O)O)C(=O)N[C@@H](CO)C(=O)N1CCC[C@H]1C(=O)O [GRGDSP (TFA)]
[1]; Well no.=7558
  remaining activity at 1.25 µM: 102%
[2]; Well no.=7558
  remaining activity at 3.75 µM: 109%

## Nc1cccc(-c2cc3c(Oc4cccc(O)c4)ncnc3[nH]2)c1 [GSK3b Inhibitor XII, TWS119]
[1]; Well no.=2608
  remaining activity at 1.25 µM: 97.8%
[2]; Well no.=2608
  remaining activity at 3.75 µM: 95.8%
